Experiments:
Assay type in all cases: functional
SK-MEL-2 = test: Growth inhibition of human SK-MEL-2 cells assessed as cell growth at 10 uM after 48 hrs by sulforhodamine B assay; details: SK-MEL-2, 48 h, read-out: Activity
M14 = test: Growth inhibition of human M14 cells assessed as cell growth at 10 uM after 48 hrs by sulforhodamine B assay; details: M14, 48 h, read-out: Activity
DU-145 = test: Growth inhibition of human DU145 cells assessed as cell growth at 10 uM after 48 hrs by sulforhodamine B assay; details: DU-145, 48 h, read-out: Activity
KM12 = test: Growth inhibition of human KM12 cells assessed as cell growth at 10 uM after 48 hrs by sulforhodamine B assay; details: KM12, 48 h, read-out: Activity
HT-29 = test: Growth inhibition of human HT-29 cells assessed as cell growth at 10 uM after 48 hrs by sulforhodamine B assay; details: HT-29, 48 h, read-out: Activity
OVCAR-3 = test: Growth inhibition of human OVCAR3 cells assessed as cell growth at 10 uM after 48 hrs by sulforhodamine B assay; details: OVCAR-3, 48 h, read-out: Activity
HCT-15 = test: Growth inhibition of human HCT15 cells assessed as cell growth at 10 uM after 48 hrs by sulforhodamine B assay; details: HCT-15, 48 h, read-out: Activity
SK-MEL-28 = test: Growth inhibition of human SK-MEL-28 cells assessed as cell growth at 10 uM after 48 hrs by sulforhodamine B assay; details: SK-MEL-28, 48 h, read-out: Activity
ACHN = test: Growth inhibition of human ACHN cells assessed as cell growth at 10 uM after 48 hrs by sulforhodamine B assay; details: read-out: Activity
TK-10 = test: Growth inhibition of human TK10 cells assessed as cell growth at 10 uM after 48 hrs by sulforhodamine B assay; details: TK-10, 48 h, read-out: Activity
SNB-19 = test: Growth inhibition of human SNB19 cells assessed as cell growth at 10 uM after 48 hrs by sulforhodamine B assay; details: SNB-19, 48 h, read-out: Activity
786-0 = test: Growth inhibition of human 786-0 cells assessed as cell growth at 10 uM after 48 hrs by sulforhodamine B assay; details: 786-0, 48 h, read-out: Activity
A549 = test: Growth inhibition of human A549/ATCC cells assessed as cell growth at 10 uM after 48 hrs by sulforhodamine B assay; details: A549, 48 h, read-out: Activity
[1] = Growth inhibition of human Hs 578T cells assessed as cell growth at 10 uM after 48 hrs by sulforhodamine B assay; details: read-out: Activity
SW-620 = test: Growth inhibition of human SW620 cells assessed as cell growth at 10 uM after 48 hrs by sulforhodamine B assay; details: SW-620, 48 h, read-out: Activity
[2] = Growth inhibition of human HCC2998 cells assessed as cell growth at 10 uM after 48 hrs by sulforhodamine B assay; details: HCC 2998, 48 h, read-out: Activity
OVCAR-4 = test: Growth inhibition of human OVCAR4 cells assessed as cell growth at 10 uM after 48 hrs by sulforhodamine B assay; details: OVCAR-4, 48 h, read-out: Activity

SMILES: COc1cc(-c2nn(-c3cccc(NC(=O)c4ccc(Br)c(C)c4)c3)cc2-c2ccncc2)ccc1Cl
- growth at 10 µM (SK-MEL-2): 58.2%
- growth at 10 µM (M14): 74.7%
- growth at 10 µM (DU-145): 102%
- growth at 10 µM (KM12): 82.7%
- growth at 10 µM (HT-29): 66.6%
- growth at 10 µM (OVCAR-3): 90.9%
- growth at 10 µM (HCT-15): 67.8%
- growth at 10 µM (SK-MEL-28): 80.2%
- growth at 10 µM (ACHN): 70.2%
- growth at 10 µM (TK-10): 91.3%
- growth at 10 µM (SNB-19): 83.6%
- growth at 10 µM (786-0): 85.9%
- growth at 10 µM (A549): 78.3%
- growth at 10 µM [1]: 74.9%
- growth at 10 µM (SW-620): 82.7%
- growth at 10 µM [2]: 88.2%
- growth at 10 µM (OVCAR-4): 86.2%

Reference: ChEMBL document CHEMBL2440076, “New triarylpyrazoles as broad-spectrum anticancer agents: design, synthesis, and biological evaluation” (Eur J Med Chem, 2013)
